Results as given in PMC8312988 (Medicinal chemistry research : an international journal for …, 2015).

Tests used:
HIV-1 = format: cell-based; conditions: for EC50: read-out: Anti-HIV-1 activity in PBM cells EC50; for EC90: read-out: Anti-HIV-1 activity in PBM cells EC90
PBM cells = assay: Cytotoxicity assay, PBM cells; format: cell-based, Human; conditions: for IC50: read-out: Cytotoxicity IC50 PBM, 5-day incubation
Vero cells = assay: Cytotoxicity assay, Vero cells; format: cell-based, African green monkey; conditions: read-out: Cytotoxicity IC50 Vero; Vero cells, 5-day incubation
CEM cells = conditions: for IC50: read-out: Cytotoxicity IC50 CEM, 5-day incubation
[1] = Cytotoxicity assay, PBM cells; format: cell-based, Human; conditions: human
[2] = Cytotoxicity assay, Vero cells; format: cell-based, African green monkey; conditions: African green monkey, Vero cells (kidney)
in vitro = conditions: human, CEM cells (lymphoblastic cell line)
PBM, CEM and Vero cells = assay: Cytotoxicity across all cell lines used; format: cell-based

With `O=C(CN1C(=O)c2ccccc2S1(=O)=O)c1cccc(Cl)c1` [Compound 1, N-3′-Chlorophenacylsaccharine] the EC50 (HIV-1) was > 100 µM, the EC90 (HIV-1) was > 100 µM and the IC50 (PBM cells) was > 100 µM. For the same molecule, the IC50 (Vero cells) was 54.8 µM and the IC50 (CEM cells) was > 100 µM.

With `O=C(C1=C(O)c2ccccc2S(=O)(=O)N1)c1cccc(Cl)c1` [Compound 2, (3-chlorophenyl)(4-hydroxy-1,1-dioxido-2H-benzo[e] [1,2]thiazin-3-yl)methanone] the IC50 at 5 day [1] was > 100 µM, the IC50 at 5 day [2] was > 100 µM and the IC50 at 5 day (in vitro) was 26.7 µM.

`COC(=O)CN1C(C(=O)c2cccc(Cl)c2)=C(O)c2ccccc2S1(=O)=O` [Compound 3, Methyl 2-[3-(3-chlorobenzoyl)-4-hydroxy-1,1-dioxido-2H-benzo[e][1,2]thiazin-2-yl]acetate] gave an IC50 at 5 day [1] of 57.3 µM, an IC50 at 5 day [2] of 40.6 µM and an IC50 at 5 day (in vitro) of 22.4 µM.

In the case of `NNC(=O)CN1c2c(n[nH]c2-c2cccc(Cl)c2)-c2ccccc2S1(=O)=O` [Compound 4], the “Anti-HIV-1 activity (in words)” value (HIV-1) is reported as “inactive”, the EC50 (HIV-1) is reported as > 100 µM and the EC90 (HIV-1) is reported as > 100 µM. For the same molecule, the IC50 (PBM cells) was > 100 µM, the IC50 (Vero cells) was > 100 µM and the “Toxicity to all the cell lines used (in words)” value (PBM, CEM and Vero cells) was “nontoxic”. The IC50 (CEM cells) was > 100 µM.

With `O=C(CN1c2c(n[nH]c2-c2cccc(Cl)c2)-c2ccccc2S1(=O)=O)NN=Cc1ccc(F)cc1` [Compound 5a, 2-[3-(3-Chlorophenyl)-5,5-dioxidobenzo[e]pyrazolo[4,3-c] [1,2]thiazin-4(2H)-yl]-N′-(4-fluorobenzylidene)acetohydrazide] the IC50 at 5 day [1] was 20 µM, the IC50 at 5 day [2] was 45.7 µM and the IC50 at 5 day (in vitro) was 31.6 µM.

`O=C(CN1c2c(n[nH]c2-c2cccc(Cl)c2)-c2ccccc2S1(=O)=O)NN=Cc1cccc(Cl)c1` [Compound 5b, N′-(3-Chlorobenzylidene)-2-[3-(3-chlorophenyl)-5,5-dioxidobenzo[e]pyrazolo[4,3-c][1,2]thiazin-4(2H)-yl]acetohydrazide] gave an IC50 at 5 day [1] of 36.3 µM, an IC50 at 5 day [2] of 16.4 µM and an IC50 at 5 day (in vitro) of 31.6 µM.

Work on `O=C(CN1c2c(n[nH]c2-c2cccc(Cl)c2)-c2ccccc2S1(=O)=O)NN=Cc1ccc(Cl)cc1` [Compound 5c, N′-(4-Chlorobenzylidene)-2-[3-(3-chlorophenyl)-5,5-dioxidobenzo[e]pyrazolo[4,3-c][1,2]thiazin-4(2H)-yl]acetohydrazide] yielded an EC50 (HIV-1) of 4 µM, an IC50 at 5 day [1] of 12.8 µM and an IC50 at 5 day [2] of 19.2 µM. For the same molecule, the “Toxicity to all the cell lines used (in words)” value (PBM, CEM and Vero cells) was “highly toxic” and the IC50 at 5 day (in vitro) was 2.5 µM.

For `O=C(CN1c2c(n[nH]c2-c2cccc(Cl)c2)-c2ccccc2S1(=O)=O)NN=Cc1cccc(Br)c1` [Compound 5d, N′-(3-Bromobenzylidene)-2-[3-(3-chlorophenyl)-5,5-dioxidobenzo[e]pyrazolo[4,3-c][1,2]thiazin-4(2H)-yl]acetohydrazide], the IC50 at 5 day [1] was 22.9 µM, the IC50 at 5 day [2] was > 100 µM and the IC50 at 5 day (in vitro) was 12.9 µM.

With `O=C(CN1c2c(n[nH]c2-c2cccc(Cl)c2)-c2ccccc2S1(=O)=O)NN=Cc1ccc(Br)cc1` [Compound 5e, N′-(4-Bromobenzylidene)-2-(3-(3-chlorophenyl)-5,5-dioxidobenzo[e]pyrazolo[4,3-c][1,2]thiazin-4(2H)-yl)acetohydrazide] the IC50 at 5 day [1] was 66.7 µM, the “Toxicity in PBM cells (in words)” value (PBM cells) was “not toxic” and the IC50 at 5 day [2] was 46.5 µM. The IC50 at 5 day (in vitro) was 5 µM.

With `O=C(CN1c2c(n[nH]c2-c2cccc(Cl)c2)-c2ccccc2S1(=O)=O)NN=Cc1ccc(Cl)cc1Cl` [Compound 5f, 2-[3-(3-Chlorophenyl)-5,5-dioxidobenzo[e]pyrazolo[4,3-c] [1,2]thiazin-4(2H)-yl]-N′-(2,4-dichlorobenzylidene)acetohydrazide] the IC50 at 5 day [1] was 80.7 µM, the “Toxicity in PBM cells (in words)” value (PBM cells) was “not toxic” and the IC50 at 5 day [2] was 84.8 µM. The “Toxicity to CEM cell line (in words)” value (CEM cells) was “toxic to only CEM cell line” and the IC50 at 5 day (in vitro) was 13.8 µM.

For `O=C(CN1c2c(n[nH]c2-c2cccc(Cl)c2)-c2ccccc2S1(=O)=O)NN=Cc1c(Cl)cccc1Cl` [Compound 5g, 2-[3-(3-Chlorophenyl)-5,5-dioxidobenzo[e]pyrazolo[4,3-c] [1,2]thiazin-4(2H)-yl]-N′-(2,6-dichlorobenzylidene)acetohydrazide], the IC50 at 5 day [1] was 52.5 µM, the “Toxicity in PBM cells (in words)” value (PBM cells) was “not toxic” and the IC50 at 5 day [2] was 60.5 µM. For the same molecule, the “Toxicity to CEM cell line (in words)” value (CEM cells) was “toxic to only CEM cell line” and the IC50 at 5 day (in vitro) was 12.5 µM.

With `COc1cccc(C=NNC(=O)CN2c3c(n[nH]c3-c3cccc(Cl)c3)-c3ccccc3S2(=O)=O)c1` [Compound 5h, 2-[3-(3-Chlorophenyl)-5,5-dioxidobenzo[e]pyrazolo[4,3-c] [1,2]thiazin-4(2H)-yl]-N′-(3-methoxybenzylidene)acetohydrazide] the IC50 at 5 day [1] was 19 µM, the IC50 at 5 day [2] was 22.3 µM and the IC50 at 5 day (in vitro) was 31.6 µM.

Molecule `COc1ccc(C=NNC(=O)CN2c3c(n[nH]c3-c3cccc(Cl)c3)-c3ccccc3S2(=O)=O)c(OC)c1OC` [Compound 5i, 2-[3-(3-Chlorophenyl)-5,5-dioxidobenzo[e]pyrazolo[4,3-c] [1,2]thiazin-4(2H)-yl]-N′-(2,3,4-trimethoxybenzylidene) acetohydrazide] has an EC50 (HIV-1) of 4.2 µM, an IC50 at 5 day [1] of 21.8 µM and an IC50 at 5 day [2] of 29 µM. For the same molecule, the IC50 at 5 day (in vitro) was 31.6 µM.

`COc1cc(C=NNC(=O)CN2c3c(n[nH]c3-c3cccc(Cl)c3)-c3ccccc3S2(=O)=O)cc(OC)c1OC` [Compound 5j, 2-[3-(3-chlorophenyl)-5,5-dioxidobenzo[e]pyrazolo[4,3-c] [1,2]thiazin-4(2H)-yl]-N′-(3,4,5-trimethoxybenzylidene) acetohydrazide] gave an IC50 at 5 day [1] of 11 µM, an IC50 at 5 day [2] of 14.3 µM and an IC50 at 5 day (in vitro) of 31.6 µM.

In the case of `O=C(CN1c2c(n[nH]c2-c2cccc(Cl)c2)-c2ccccc2S1(=O)=O)NN=Cc1ccccc1[N+](=O)[O-]` [Compound 5k, 2-[3-(3-Chlorophenyl)-5,5-dioxidobenzo[e]pyrazolo[4,3-c] [1,2]thiazin-4(2H)-yl]-N′-(2-nitrobenzylidene)acetohydrazide], the “Anti-HIV-1 activity (in words)” value (HIV-1) is reported as “no inhibition”, the IC50 at 5 day [1] is reported as > 100 µM and the IC50 at 5 day [2] is reported as > 100 µM. For the same molecule, the “Toxicity to all the cell lines used (in words)” value (PBM, CEM and Vero cells) was “no toxicity” and the IC50 at 5 day (in vitro) was > 100 µM.

In the case of `O=C(CN1c2c(n[nH]c2-c2cccc(Cl)c2)-c2ccccc2S1(=O)=O)NN=Cc1cccc([N+](=O)[O-])c1` [Compound 5l, 2-[3-(3-Chlorophenyl)-5,5-dioxidobenzo[e]pyrazolo[4,3-c] [1,2]thiazin-4(2H)-yl]-N′-(3-nitrobenzylidene)acetohydrazide], the IC50 at 5 day [1] is reported as > 100 µM, the “Toxicity in PBM cells (in words)” value (PBM cells) is reported as “not toxic” and the IC50 at 5 day [2] is reported as 27 µM. For the same molecule, the IC50 at 5 day (in vitro) was 47.3 µM.

In the case of `O=C(CN1c2c(n[nH]c2-c2cccc(Cl)c2)-c2ccccc2S1(=O)=O)NN=Cc1ccc([N+](=O)[O-])cc1` [Compound 5m, 2-[3-(3-Chlorophenyl)-5,5-dioxidobenzo[e]pyrazolo[4,3-c] [1,2]thiazin-4(2H)-yl]-N′-[4-nitrobenzylidene]acetohydrazide], the IC50 at 5 day [1] is reported as 16.7 µM, the IC50 at 5 day [2] is reported as 21.2 µM and the IC50 at 5 day (in vitro) is reported as 2.8 µM.

Molecule `O=C(CN1c2c(n[nH]c2-c2cccc(Cl)c2)-c2ccccc2S1(=O)=O)NN=Cc1ccc(C(=O)O)cc1` [Compound 5n, 4-[(2-(2-(3-(3-Chlorophenyl)-5,5-dioxidobenzo[e]pyrazolo [4,3-c][1,2]thiazin-4(2H)-yl)acetyl)hydrazono)methyl]benzoic acid] has an IC50 at 5 day [1] of 17.2 µM, an IC50 at 5 day [2] of 18.2 µM and an IC50 at 5 day (in vitro) of 13.4 µM.

With `CN(C)c1ccc(C=NNC(=O)CN2c3c(n[nH]c3-c3cccc(Cl)c3)-c3ccccc3S2(=O)=O)cc1` [Compound 5o, 2-[3-(3-Chlorophenyl)-5,5-dioxidobenzo[e]pyrazolo[4,3-c] [1,2]thiazin-4(2H)-yl]-N′-[4-(dimethylamino)benzylidene] acetohydrazide] the IC50 at 5 day [1] was 23.7 µM, the IC50 at 5 day [2] was 10.4 µM and the IC50 at 5 day (in vitro) was 2.5 µM.
